Reference: patent publication US7572606B1 (Nereus Pharmaceuticals, Inc., priority 2005, dated 2009)
pEC50: −log10 of the molar value. Peptide text beside a SMILES is read from it. * marks the point of attachment. Cbz = O=C(OCc1ccccc1)*

How the values were obtained:
[1] = test system: proteasome in packed whole blood lysate; experiment: Dose response on PWBL lysates in vitro; type: biochemical, mouse; conditions: lysates of vehicle and 0.1 mg/kg Salinosporamide A treated animals
Source text: Palayoor et al., Oncogene 18:7389-94 (1999).

Stability in solution = type: physicochemical; conditions: converted to compound VI-1B, mixture 7:3
Protocol: The reaction mixture was stirred at room temperature for about 3 hours. The solvent was evaporated from the reaction mixture to yield the compound of Formula II-48, which was purified by reversed phase HPLC using Ace 5u C18 column (150 mm×22 mm ID) with a solvent gradient of 10% to 70% H2O/Acetonitrile over 15 min, 70 to 100% Acetonitrile over 5 min, holding at 100% Acetonitrile for 4 min, at a flow rate of 14.5 ml/min. Diode array detector was used to monitor the purification process. Compound II-48 (10 mg) eluted as a pure compound at 8.255 min. […] Compound VI-1B: UV (Acetonitrile/H2O) λmax 235 (sh) nm; ESMS, m/z 585.2 (M+H)^+.

[2] = test system: LeTx-induced cytotoxicity of RAW264.7 cells; conditions: cited from earlier work

SMILES | pEC50 [2] | further results
CC[C@H](C)[C@H](NC(=O)[C@H]([C@@H](C)CC)N(C)C(C)=O)C(=O)N[C@H](C(=O)N[C@@H](CC(C)C)C(=O)[C@@]1(C)CO1)[C@@H](C)O [Epoxomicin] | – | hydrolysis of the proteasome substrate in PWBL lysates [1]: dose dependent inhibition in the hydrolysis of the proteasome substrate
C[C@]1(O)[C@@H](CCCl)C(=O)N[C@]1(C(=O)SCC(NC(=O)CCC(N)C(=O)O)C(=O)NCC(=O)O)[C@@H](O)[C@@H]1C=CCCC1 (stereo partly shown) [Formula II-48] | – | stability in solution (Stability in solution): unstable in solution
CC(=O)N[C@@H](CSC(=O)[C@]1([C@@H](O)C(C)C)NC(=O)[C@H](C)[C@@H]1O)C(=O)O [Lactacystin] | 5.52 | –
CC(C)C[C@@H](C=O)NC(=O)[C@H](CC(C)C)NC(=O)[C@H](CC(C)C)NC(=O)OCc1ccccc1 [MG132] (Cbz-Leu-Leu-Leu-aldehyde) | 5.52 | –
